Reference: PMC8949366, “Synthesis of Marine Cyclopeptide Galaxamide Analogues as Potential Anticancer Agents” (Marine Drugs, 2022)
In brackets after ≈: the same amount, converted by molar mass. Square brackets hold non-standard residues; d marks the D form. Peptide text beside a SMILES is read from it. NMeL = CN[C@@H](CC(C)C)C(=O)O

Key:
[1] = system: A549; type: cell-based, human; settings: 72 h
Method: (§1) Cell culture: MCF-7/MD-MAB-231 (human breast cancer cell line ATCC HTB-22/HTB-26), Hep G2 (human liver cancer cell line ATCC HB-8065), Hela (human cervical carcinoma cell line ATCC CCL-2), A459 (human lung cancer cell line ATCC CCL-185), and HUVEC (primary umbilical vein endothelial cell line ATCC PCS-100-010) were obtained from the Jinan Department of Pathology, University School of Medicine (Jinan University, Guangzhou, China). The cells were cultured in a Modified Eagle’s Medium (DMEM) including 10% fetal bovine serum, 1% penicillin-streptomycin, and antifungal agent, and cultured under standard conditions (5% CO2 atmosphere and temperature at 37 °C). The MTT method was used to evaluate the cytotoxicities of galaxamide and its analogues on the five cancerous cells. In this experiment, the number of regulated cells was 2 × 10^3 cells/well. Then, the cells, as well as galaxamide and its analogues of different concentrations (0, 2.5, 5, and 10 μg/mL), were seeded on a 96-well cell culture plate and cultured in a 37 °C, 5% CO2 incubator for 72 h. After that, 20 µL/well of MTT solution (5 mg/mL phosphate-buffered saline) was added and incubated for 5 h. The medium was discarded and replaced with 100 µL/well of DMSO to dissolve the formazan salt. The color intensity of the cell culture at 570 nm was measured using a microplate spectrophotometer (SpectroAma™ 250, Winooski, VT, USA).

[2] = system: HUVEC; type: cell-based, human; settings: 72 h
Method: as §1

[3] = system: Hela; type: cell-based, human; settings: 72 h
Method: as §1

[4] = system: HepG2; type: cell-based, human; settings: 72 h
Method: as §1

[5] = system: MCF-7; type: cell-based, human; settings: 72 h
Method: as §1

[6] = system: MD-MBA-231; type: cell-based, human; settings: 72 h
Method: as §1

[7] = system: MCF-7 cells; experiment: Cell cycle distribution by propidium iodide staining / flow cytometry; type: cell-based, human; settings: 0, 2.5, 5, 10 µg/mL, 72 h
Method: Therefore, propidium iodide (PI) staining method was used to further investigate the changes in the cell cycle distribution of MCF-7. In particular, MCF-7 cells were exposed to galaxamide, Z-3, and Z-6 with concentrations of 0, 2.5, 5, and 10 µg/mL for 72 h. Generally, the main effects of galaxamide, Z-3, and Z-6 on MCF-7 cells were in the G0/G1 phase. There was no obvious sub diploid peak in flow cytometry.
(§2) The concentration of 1 × 10^4 cells per well of MCF-7 cells were seeded in 96-well plates. The cell cultures were added to the compounds with a concentration of 0, 2.5, 5, and 10 µg/mL, and incubated for 72 h. After that, 5 µL of Annexin V-fluorescein isothiocyanate (FITC) and 5 µL of PI were added for dual staining of the cells for analysis by FACS flow cytometry. Cell cycles and apoptotic cells were determined by counting the FITC-positive and PI-negative fractions.

[8] = system: MCF-7 cells; experiment: Annexin V-FITC/PI double staining apoptosis, flow cytometry; type: cell-based, human; settings: 0, 2.5, 5, 10 µg/mL, 72 h
Method: The Annexin V-FITC/PI double staining method was used to analyze the changes in the apoptosis of MCF-7 cells after 72 h of galaxamide, Z-3, and Z-6 exposure. […] At low concentrations, the effects of all the tested compounds were not obvious. When the concentration reached 10 μg/mL, the apoptotic effects of galaxamide, Z-3, and Z-6 on MCF-7 cells were more obvious in the late apoptotic state.
as §2
The apoptotic cells were quantified according to the instructions provided in an Annexin V-FITC (Sigma-Aldrich, St. Louis, MO, USA) cell apoptosis assay kit. Briefly, about 1.5 × 10^5 cells were plated in 96-well plates and treated with galaxamide and its representative analogues (0, 2.5, 5, and 10 µg/mL) for 48 h. The cells were then resuspended in a […] binding buffer. Afterward, […] of annexin V-fluorescein isothiocyanate (FITC) was added, followed by incubation in darkness at room temperature for 10 min. The cells were again resuspended in […] binding buffer and stained with […] PI. The prepared cells were then analyzed using a flow cytometry (Coulter Epics Elite, Miami, FL, USA). The cells in the FITC-positive and PI-negative fractions were regarded as apoptotic cells.

[9] = system: MCF-7 cells; experiment: Hoechst 33,342 staining of nuclear morphology; type: cell-based, human; settings: 72 h
Method: The morphological alteration of MCF-7 cells was analyzed by the method of Hoechst 33,342 staining (Figure 5). […] The pyknotic nuclei increased with the increasing concentration of these compounds.
[…] After that, the cell culture was washed with 1 mL of PBS and then added with 3 mL of 4% paraformaldehyde solution for 15 min. Then, 1 mL of the prepared Hoechst 33,342 staining solution was added. The resulting mixture was incubated at room temperature for 15 min in the dark.

[10] = system: GRC-1; design: method as in PMID 18816120; settings: cited from earlier work
[11] = system: HepG2; design: method as in PMID 18816120; settings: cited from earlier work

- IC50 A549 [1]: 6.99 ± 0.63 µg/mL (≈ 11.8 µM)
- IC50 Hela [3]: 8.53 ± 0.73 µg/mL (≈ 14.4 µM)
- IC50 HepG2 [4]: 5.20 ± 0.52 µg/mL (≈ 8.76 µM)
- IC50 MCF-7 [5]: 11.33 ± 2.95 µg/mL (≈ 19.1 µM)
- IC50 MD-MBA-231 [6]: 8.73 ± 0.29 µg/mL (≈ 14.7 µM)
Compound: CC(C)C[C@@H]1NC(=O)[C@H](CC(C)C)N(C)C(=O)[C@H](CC(C)C)NC(=O)[C@H](CC(C)C)N(C)C(=O)[C@H](CC(C)C)NC1=O [galaxamide] (cyclo(LL[NMeL]L[NMeL]))
- IC50 HUVEC [2]: >40 µg/mL
- Effect on cell cycle of MCF-7 (in words) [7]: mainly blocked the growth of cells in the G0/G1 phase
- Apoptosis of MCF-7 cells (in words) [8]: apoptosis rate of MCF-7 increased with the increasing of the concentration
- Nuclear morphology of MCF-7 cells (in words) [9]: the morphology of the nuclei was significantly changed
- Antitumor activity against GRC-1 (in words) [10]: significant antitumor activities
- Antitumor activity against HepG2 (in words) [11]: significant antitumor activities
